Laboratory results as given in US11590139B2, “Substituted aminopurine compounds, compositions thereof, and methods of treatment therewith” (Signal Pharmaceuticals, LLC, priority 2014, dated 2023).

System: Lox-IMVI melanoma cell line
Assay: Lox-IMVI anti-proliferative assay (growth inhibition, Cell Titer-Glo)
Assay type: cell-based, human
Details: Homo sapiens; IC50 activity level in the cell-based Lox-IMVI anti-proliferative assay; read-out: Activity
Method: Determination of the Growth Inhibitory Effect of Aminopurine Compounds. The Lox-IMVI melanoma cell line (Source: NCI-DCTD, catalog No. 0507283) was maintained and tested in RPMI+10% FBS. The seeding density for the cell line was optimized to ensure assay linearity in 384-well plates.
Increasing concentrations of Aminopurine Compound (0.5 nM to 10 μM) were spotted in a 10-point serial dilution fashion (3-fold dilution) in duplicate within the plate via an acoustic dispenser (EDC ATS-100) into an empty 384-well plate. The dimethyl sulfoxide (DMSO) concentration was kept constant for a final assay concentration of 0.2% DMSO. Prior to testing, cells were grown and expanded in culture flasks to provide sufficient amounts of starting material. Cells were then diluted to their desired densities and added directly to the compound-spotted 384-well plates. Cells were allowed to grow for 72 hours in 5% CO2 at 37° C. At the time when exposure of cells to compound began (t0), initial cell number was assessed via a viability assay (Cell Titer-Glo) by quantifying the level of luminescence generated by adenosine-5′-triphosphate (ATP) present in viable cells. After 72 hours, cell viability of compound-treated cells was assessed via Cell Titer-Glo Luminescent Cell Viability Assay (Promega Corporation, Madison, Wis.) and read for luminescence.
All data was normalized and represented as a percentage of the DMSO-treated control cells after 72 h. Results were expressed as a IC50 value, which is the compound concentration required to inhibit 50% of the untreated control cells during the 72 hours of treatment.
A Four Parameter Logistic Model (Sigmoidal Dose-Response Model) was used to determine the compound's IC50. y=(A+((B−A)/(1+((C/x)^D))))
wherein: • A=YMin • B=YMax • C=EC50 • D=Hill Slope • IC50 is the compound concentration when Y=50% of DMSO control • Y=Luminescence unit
All inhibition curves were processed and evaluated using XLFit and Activity Base (IDBS).

SMILES	IC50
NC(=O)[C@H]1CC[C@@H](n2c(Nc3c(Cl)cc(Cl)cc3Cl)nc3cnc(NC4CCS(=O)(=O)CC4)nc32)CC1 [Example 92, (1s,4s)-4-(2-((1,1-dioxidotetrahydro-2H-thiopyran-4-yl)amino)-8-((2,4,6-trichlorophenyl)amino)-9H-purin-9-yl)cyclohexane-1-carboxamide]	> 1000 nM
NC(=O)[C@H]1CC[C@@H](n2c(Nc3ccccc3Cl)nc3cnc(NC4CCCC4)nc32)CC1 [Example 93, (1s,4s)-4-(8-(2-chlorophenylamino)-2-(cyclopentylamino)-9H-purin-9-yl)cyclohexanecarboxamide]	> 1000 nM
NC(=O)[C@H]1CC[C@@H](n2c(Nc3ccc(Cl)cc3Cl)nc3cnc(NC4CCCC4)nc32)CC1 [Example 94, (1s,4s)-4-(2-(cyclopentylamino)-8-(2,4-dichlorophenylamino)-9H-purin-9-yl)cyclohexanecarboxamide]	> 1000 nM
NC(=O)[C@H]1CC[C@@H](n2c(Nc3ccc(Cl)cc3F)nc3cnc(NC4CCCC4)nc32)CC1 [Example 95, (1s,4s)-4-(8-(4-chloro-2-fluorophenylamino)-2-(cyclopentylamino)-9H-purin-9-yl)cyclohexanecarboxamide]	> 1000 nM
CC(C)Nc1ncc2nc(Nc3ccc(Cl)cc3Cl)n([C@H]3CC[C@@H](C(N)=O)CC3)c2n1 [Example 96, (1s,4s)-4-(8-(2,4-dichlorophenylamino)-2-(isopropylamino)-9H-purin-9-yl)cyclohexanecarboxamide]	> 1000 nM
CC(C)Nc1ncc2nc(Nc3ccc(F)cc3Cl)n([C@H]3CC[C@@H](C(N)=O)CC3)c2n1 [Example 97, (1s,4s)-4-(8-(2-chloro-4-fluorophenylamino)-2-(isopropylamino)-9H-purin-9-yl)cyclohexanecarboxamide]	> 1000 nM
CC(C)Nc1ncc2nc(Nc3c(F)ccc(F)c3F)n([C@H]3CC[C@@H](C(N)=O)CC3)c2n1 [Example 98, (1s,4s)-4-(2-(isopropylamino)-8-(2,3,6-trifluorophenylamino)-9H-purin-9-yl)cyclohexanecarboxamide]	> 1000 nM
CC(C)Nc1ncc2nc(Nc3c(F)cc(Cl)cc3Cl)n([C@H]3CC[C@@H](C(N)=O)CC3)c2n1 [Example 99, (1s,4s)-4-(8-(2,4-dichloro-6-fluorophenylamino)-2-(isopropylamino)-9H-purin-9-yl)cyclohexanecarboxamide]	250 to 500 nM
NC(=O)[C@H]1CC[C@@H](n2c(Nc3cc(F)c(F)cc3Cl)nc3cnc(NC4CCOCC4)nc32)CC1 [Example 100, (1s,4s)-4-(8-(2-chloro-4,5-difluorophenylamino)-2-(tetrahydro-2H-pyran-4-ylamino)-9H-purin-9-yl)cyclohexanecarboxamide]	> 1000 nM
Cc1cc(Cl)c(Nc2nc3cnc(NC4CCOCC4)nc3n2[C@H]2CC[C@@H](C(N)=O)CC2)cc1C [Example 101, (1s,4s)-4-(8-(2-chloro-4,5-dimethylphenylamino)-2-(tetrahydro-2H-pyran-4-ylamino)-9H-purin-9-yl)cyclohexanecarboxamide]	> 1000 nM
Cc1c(Cl)ccc(Nc2nc3cnc(NC4CCOCC4)nc3n2[C@H]2CC[C@@H](C(N)=O)CC2)c1F [Example 102, (1s,4s)-4-(8-(4-chloro-2-fluoro-3-methylphenylamino)-2-(tetrahydro-2H-pyran-4-ylamino)-9H-purin-9-yl)cyclohexanecarboxamide]	> 1000 nM
Cc1cc(Cl)cc(Cl)c1Nc1nc2cnc(NC3CCOCC3)nc2n1[C@H]1CC[C@@H](C(N)=O)CC1 [Example 103, (1s,4s)-4-(8-(2,4-dichloro-6-methylphenylamino)-2-(tetrahydro-2H-pyran-4-ylamino)-9H-purin-9-yl)cyclohexanecarboxamide]	> 1000 nM
NC(=O)[C@H]1CC[C@@H](n2c(Nc3c(F)ccc(Cl)c3Cl)nc3cnc(NC4CCOCC4)nc32)CC1 [Example 104, (1s,4s)-4-(8-(2,3-dichloro-6-fluorophenylamino)-2-(tetrahydro-2H-pyran-4-ylamino)-9H-purin-9-yl)cyclohexanecarboxamide]	250 to 500 nM
NC(=O)[C@H]1CC[C@@H](n2c(Nc3cc(F)c(Cl)cc3Cl)nc3cnc(NC4CCOCC4)nc32)CC1 [Example 105, (1s,4s)-4-(8-(2,4-dichloro-5-fluorophenylamino)-2-(tetrahydro-2H-pyran-4-ylamino)-9H-purin-9-yl)cyclohexanecarboxamide]	> 1000 nM
Cc1cc(F)c(Nc2nc3cnc(NC4CCOCC4)nc3n2[C@H]2CC[C@@H](C(N)=O)CC2)cc1F [Example 106, (1s,4s)-4-(8-(2,5-difluoro-4-methylphenylamino)-2-(tetrahydro-2H-pyran-4-ylamino)-9H-purin-9-yl)cyclohexanecarboxamide]	> 1000 nM
NC(=O)[C@H]1CC[C@@H](n2c(Nc3c(F)cccc3Cl)nc3cnc(NC4CCN(c5cccnc5)CC4)nc32)CC1 [Example 107, (1s,4s)-4-(8-(2-chloro-6-fluorophenylamino)-2-(1-(pyridin-3-yl)piperidin-4-ylamino)-9H-purin-9-yl)cyclohexanecarboxamide]	> 1000 nM
NC(=O)[C@H]1CC[C@@H](n2c(Nc3c(F)cccc3Cl)nc3cnc(NC4CCN(c5ccccc5)CC4)nc32)CC1 [Example 108, (1s,4s)-4-(8-(2-chloro-6-fluorophenylamino)-2-(1-phenylpiperidin-4-ylamino)-9H-purin-9-yl)cyclohexanecarboxamide]	> 1000 nM
NC(=O)[C@H]1CC[C@@H](n2c(Nc3c(Cl)cc(Cl)cc3Cl)nc3cnc(NCC(F)(F)F)nc32)CC1 [Example 109, (1s,4s)-4-(8-(2,4,6-trichlorophenylamino)-2-(2,2,2-trifluoroethylamino)-9H-purin-9-yl)cyclohexanecarboxamide]	> 1000 nM
NC(=O)[C@H]1CC[C@@H](n2c(Nc3c(Cl)cc(Cl)cc3Cl)nc3cnc(NCC4CCC4)nc32)CC1 [Example 110, (1s,4s)-4-(2-(cyclobutylmethylamino)-8-(2,4,6-trichlorophenylamino)-9H-purin-9-yl)cyclohexanecarboxamide]	500 to 1000 nM
NC(=O)[C@H]1CC[C@@H](n2c(Nc3c(Cl)cc(Cl)cc3Cl)nc3cnc(N[C@@H]4CCCOC4)nc32)CC1 [Example 111, (1S,4s)-4-(2-((R)-tetrahydro-2H-pyran-3-ylamino)-8-(2,4,6-trichlorophenylamino)-9H-purin-9-yl)cyclohexanecarboxamide]	> 1000 nM
NC(=O)[C@H]1CC[C@@H](n2c(Nc3ccc(Cl)c(Cl)c3F)nc3cnc(NC4CCOCC4)nc32)CC1 [Example 112, (1s,4s)-4-(8-(3,4-dichloro-2-fluorophenylamino)-2-(tetrahydro-2H-pyran-4-ylamino)-9H-purin-9-yl)cyclohexanecarboxamide]	250 to 500 nM
NC(=O)[C@H]1CC[C@@H](n2c(Nc3c(Cl)ccc(F)c3F)nc3cnc(NC4CCOCC4)nc32)CC1 [Example 113, (1s,4s)-4-(8-(6-chloro-2,3-difluorophenylamino)-2-(tetrahydro-2H-pyran-4-ylamino)-9H-purin-9-yl)cyclohexanecarboxamide]	500 to 1000 nM
CS(=O)(=O)N1CCC(Nc2ncc3nc(Nc4c(F)cccc4Cl)n([C@H]4CC[C@@H](C(N)=O)CC4)c3n2)CC1 [Example 114, (1s,4s)-4-(8-(2-chloro-6-fluorophenylamino)-2-(1-(methylsulfonyl)piperidin-4-ylamino)-9H-purin-9-yl)cyclohexanecarboxamide]	> 1000 nM
Cc1cc(F)c(Nc2nc3cnc(NC4CCOCC4)nc3n2[C@H]2CC[C@@H](C(N)=O)CC2)c(F)c1 [Example 115, (1s,4s)-4-(8-(2,6-difluoro-4-methylphenylamino)-2-(tetrahydro-2H-pyran-4-ylamino)-9H-purin-9-yl)cyclohexanecarboxamide]	500 to 1000 nM
Cc1cc(Cl)c(Nc2nc3cnc(NC4CCOCC4)nc3n2[C@H]2CC[C@@H](C(N)=O)CC2)c(Cl)c1 [Example 116, (1s,4s)-4-(8-(2,6-dichloro-4-methylphenylamino)-2-(tetrahydro-2H-pyran-4-ylamino)-9H-purin-9-yl)cyclohexanecarboxamide]	> 1000 nM
NC(=O)[C@H]1CC[C@@H](n2c(Nc3c(F)cc(F)cc3Cl)nc3cnc(NC4CCC4)nc32)CC1 [Example 117, (1s,4s)-4-(8-(2-chloro-4,6-difluorophenylamino)-2-(cyclobutylamino)-9H-purin-9-yl)cyclohexanecarboxamide]	500 to 1000 nM
NC(=O)[C@H]1CC[C@@H](n2c(Nc3c(Cl)cc(F)cc3Cl)nc3cnc(NC4CCC4)nc32)CC1 [Example 118, (1s,4s)-4-(2-(cyclobutylamino)-8-(2,6-dichloro-4-fluorophenylamino)-9H-purin-9-yl)cyclohexanecarboxamide]	500 to 1000 nM
NC(=O)[C@H]1CC[C@@H](n2c(Nc3c(F)cc(F)cc3Cl)nc3cnc(NC4CCCC4)nc32)CC1 [Example 119, (1s,4s)-4-(8-(2-chloro-4,6-difluorophenylamino)-2-(cyclopentylamino)-9H-purin-9-yl)cyclohexanecarboxamide]	250 to 500 nM
